Test results published in PubChem BioAssay (NCI).
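Five compound concentrations were applied to cells in 96-well plates for 48 hours; endpoints were derived by simple linear interpolation of the resulting dose-response curve. At the GI50, growth is halved. At the TGI there is no net growth.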

Legend:
Assay in all cases: growth of human tumour cells (NCI), 48 h
[1] = test system: 786-0 renal
[2] = test system: A498 renal
[3] = test system: A549 NSCLC
[4] = test system: ACHN renal
[5] = test system: BT-549 breast
[6] = test system: CAKI-1 renal
[7] = test system: CCRF-CEM leukemia
[8] = test system: COLO 205 colon
[9] = test system: DU-145 prostate
[10] = test system: EKVX NSCLC
[11] = test system: HCC-2998 colon
[12] = test system: HCT-116 colon
[13] = test system: HCT-15 colon
[14] = test system: HL-60(TB) leukemia
[15] = test system: HOP-62 NSCLC
[16] = test system: HOP-92 NSCLC
[17] = test system: HS 578T breast
[18] = test system: HT29 colon
[19] = test system: IGROV1 ovarian
[20] = test system: K-562 leukemia
[21] = test system: KM12 colon
[22] = test system: LOX IMVI melanoma
[23] = test system: M14 melanoma
[24] = test system: MALME-3M melanoma
[25] = test system: MCF7 breast
[26] = test system: MDA-MB-231 breast
[27] = test system: MDA-MB-435
[28] = test system: MOLT-4 leukemia
[29] = test system: NCI-H226 lung

C[C@]12CCC(=O)CC1CC[C@@H]1C2CC[C@@]2(C)C1CC[C@@H]2OC(=O)CC[Se][Se]CCC(=O)O[C@H]1CCC2[C@@H]3CCC4CC(=O)CC[C@]4(C)C3CC[C@@]21C (stereo partly specified)
GI50 [1]: 3.25 µM
TGI [1]: 9.36 µM
GI50 [2]: 1.76 µM
TGI [2]: 4.15 µM
GI50 [3]: 1.94 µM
TGI [3]: 4.39 µM
GI50 [4]: 3.61 µM
TGI [4]: 13.2 µM
GI50 [5]: 2.1 µM
TGI [5]: 4.52 µM
GI50 [6]: 1.64 µM
TGI [6]: 5.09 µM
GI50 [7]: 3.54 µM
TGI [7]: > 100 µM
GI50 [8]: 2.17 µM
TGI [8]: 4.01 µM
GI50 [9]: 2.19 µM
TGI [9]: 5.05 µM
GI50 [10]: 2.44 µM
GI50 [11]: 13.4 µM
TGI [11]: 31.6 µM
GI50 [12]: 2.01 µM
TGI [12]: 4.16 µM
GI50 [13]: 3.64 µM
TGI [13]: 16 µM
GI50 [14]: 4.15 µM
TGI [14]: > 100 µM
GI50 [15]: 2.52 µM
TGI [15]: 5.34 µM
GI50 [16]: 2.22 µM
TGI [16]: 6.04 µM
GI50 [17]: 2.02 µM
TGI [17]: 7.79 µM
GI50 [18]: 2.5 µM
TGI [18]: 6.01 µM
GI50 [19]: 2.13 µM
TGI [19]: 4.3 µM
GI50 [20]: 10 µM
TGI [20]: > 100 µM
GI50 [21]: 4.09 µM
TGI [21]: 14.5 µM
GI50 [22]: 2.12 µM
TGI [22]: 5.07 µM
GI50 [23]: 2.28 µM
TGI [23]: 5.69 µM
GI50 [24]: 1.83 µM
TGI [24]: 3.63 µM
GI50 [25]: 3.85 µM
TGI [25]: 12 µM
GI50 [26]: 1.57 µM
TGI [26]: 3.36 µM
GI50 [27]: 1.82 µM
TGI [27]: 3.83 µM
GI50 [28]: 4.67 µM
TGI [28]: > 100 µM
GI50 [29]: 2.25 µM
